From PubChem BioAssay AID2060331 (Molecular Pharmacology Branch, DTP, NCI, 2025)

System: Hs578T multi-cell spheroids, viability
Test: Anticancer human tumor Hs578T cell line growth inhibition [IpAb];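 note: drug exposure lasted 7 days before readout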
Settings: for IC50: curve of first compound; for viability, T/C: stronger effect = lower value; active = viability on the fitted dose curve at most 10% of control; inactive = the rest
How it was run: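 Multi-cell spheroids of 60% tumour cells, 25% HUVEC and 15% MSC in ultra-low-attachment U-bottom wells, treated with agents combined with ipatasertib or abemaciclib. Half-log ranges top out near clinical Cmax, or 10 microM when Cmax is unknown.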

CC(C)(C)c1cnc(CSc2cnc(NC(=O)C3CCNCC3)s2)o1 + CCN1CCN(Cc2ccc(Nc3ncc(F)c(-c4cc(F)c5nc(C)n(C(C)C)c5c4)n3)nc2)CC1
181 nM: IC50 (second compound 0.01 µM) | IC50 (second compound 0.0316 µM)
inactive: viability, T/C (second compound 0.01 µM, first compound 0.00949 µM) 101% | viability, T/C (second compound 0.01 µM, first compound 0.03 µM) 114% | viability, T/C (second compound 0.01 µM, first compound 0.0949 µM) 114% | viability, T/C (second compound 0.0316 µM, first compound 0.00949 µM) 99% | viability, T/C (second compound 0.0316 µM, first compound 0.03 µM) 113% | viability, T/C (second compound 0.0316 µM, first compound 0.0949 µM) 118% | viability, T/C (second compound 0.1 µM, first compound 0.00949 µM) 100% | viability, T/C (second compound 0.1 µM, first compound 0.03 µM) 99.9% | viability, T/C (second compound 0.1 µM, first compound 0.0949 µM) 95.3% | viability, T/C (second compound 0.316 µM, first compound 0.00949 µM) 104% | viability, T/C (second compound 0.316 µM, first compound 0.03 µM) 104% | viability, T/C (second compound 0.316 µM, first compound 0.0949 µM) 97.2% | viability, T/C (second compound 1 µM, first compound 0.00949 µM) 109% | viability, T/C (second compound 1 µM, first compound 0.03 µM) 107% | viability, T/C (second compound 1 µM, first compound 0.0949 µM) 59.6%
169 nM: IC50 (second compound 0.316 µM)
115 nM: IC50 (second compound 1 µM)
167 nM: IC50 (second compound 0.1 µM)
active: viability, T/C (second compound 0.01 µM, first compound 0.3 µM) 3.69% | viability, T/C (second compound 0.01 µM, first compound 0.949 µM) 3.37% | viability, T/C (second compound 0.01 µM, first compound 3 µM) 3.55% | viability, T/C (second compound 0.0316 µM, first compound 0.3 µM) 2.94% | viability, T/C (second compound 0.0316 µM, first compound 0.949 µM) 2.55% | viability, T/C (second compound 0.0316 µM, first compound 3 µM) 2.82% | viability, T/C (second compound 0.1 µM, first compound 0.3 µM) 2.53% | viability, T/C (second compound 0.1 µM, first compound 0.949 µM) 2.48% | viability, T/C (second compound 0.1 µM, first compound 3 µM) 3.11% | viability, T/C (second compound 0.316 µM, first compound 0.3 µM) 2.46% | viability, T/C (second compound 0.316 µM, first compound 0.949 µM) 3.54% | viability, T/C (second compound 0.316 µM, first compound 3 µM) 3.59% | viability, T/C (second compound 1 µM, first compound 0.3 µM) 2.32% | viability, T/C (second compound 1 µM, first compound 0.949 µM) 2.79% | viability, T/C (second compound 1 µM, first compound 3 µM) 4.16%

COc1c(OCCCN2CCOCC2)ccc2c3n(c(=NC(=O)c4cnc(N)nc4)nc12)CCN3 + CCN1CCN(Cc2ccc(Nc3ncc(F)c(-c4cc(F)c5nc(C)n(C(C)C)c5c4)n3)nc2)CC1
active: viability, T/C (second compound 0.01 µM, first compound 1 µM) 8.09% | viability, T/C (second compound 0.0316 µM, first compound 1 µM) 7.23% | viability, T/C (second compound 0.1 µM, first compound 1 µM) 6.99% | viability, T/C (second compound 0.316 µM, first compound 1 µM) 7.2%
20.7 nM: IC50 (second compound 0.0316 µM)
15.2 nM: IC50 (second compound 0.1 µM)
25.3 nM: IC50 (second compound 1 µM)
17.1 nM: IC50 (second compound 0.316 µM)
inactive: viability, T/C (second compound 0.01 µM, first compound 0.00316 µM) 88.7% | viability, T/C (second compound 0.01 µM, first compound 0.01 µM) 65.9% | viability, T/C (second compound 0.01 µM, first compound 0.0316 µM) 43.3% | viability, T/C (second compound 0.01 µM, first compound 0.1 µM) 26.9% | viability, T/C (second compound 0.01 µM, first compound 0.316 µM) 16% | viability, T/C (second compound 0.0316 µM, first compound 0.00316 µM) 75.6% | viability, T/C (second compound 0.0316 µM, first compound 0.01 µM) 63.6% | viability, T/C (second compound 0.0316 µM, first compound 0.0316 µM) 40.5% | viability, T/C (second compound 0.0316 µM, first compound 0.1 µM) 28% | viability, T/C (second compound 0.0316 µM, first compound 0.316 µM) 11.6% | viability, T/C (second compound 0.1 µM, first compound 0.00316 µM) 75.8% | viability, T/C (second compound 0.1 µM, first compound 0.01 µM) 53.5% | viability, T/C (second compound 0.1 µM, first compound 0.0316 µM) 40.9% | viability, T/C (second compound 0.1 µM, first compound 0.1 µM) 26.8% | viability, T/C (second compound 0.1 µM, first compound 0.316 µM) 13.8% | viability, T/C (second compound 0.316 µM, first compound 0.00316 µM) 82.1% | viability, T/C (second compound 0.316 µM, first compound 0.01 µM) 55.8% | viability, T/C (second compound 0.316 µM, first compound 0.0316 µM) 42.1% | viability, T/C (second compound 0.316 µM, first compound 0.1 µM) 26.1% | viability, T/C (second compound 0.316 µM, first compound 0.316 µM) 15.5% | viability, T/C (second compound 1 µM, first compound 0.00316 µM) 91.5% | viability, T/C (second compound 1 µM, first compound 0.01 µM) 67.4% | viability, T/C (second compound 1 µM, first compound 0.0316 µM) 43.1% | viability, T/C (second compound 1 µM, first compound 0.1 µM) 32.5% | viability, T/C (second compound 1 µM, first compound 0.316 µM) 20.1% | viability, T/C (second compound 1 µM, first compound 1 µM) 9.99%
22.8 nM: IC50 (second compound 0.01 µM)
